US20220073536A1 (Rigel Pharmaceuticals, Inc., priority 2003, published 2022)
Blank lines part the entries; values can stand above or below the molecule they belong to.

Columns and labels:
[1] = test system: cultured human mast cells (CHMC); assay: CHMC low cell density ionomycin activation: tryptase assay; assay type: cell-based; details: read-out: LD Tryptase, CHMC, Iono, 3 pt
[2] = test system: cultured human mast cells (CHMC); assay: CHMC low cell density IgE activation: tryptase assay; assay type: cell-based; details: IgE activation
Method in brief: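 Fluorogenic readout of tryptase released into the supernatant (30 min substrate incubation, room temperature) measures degranulation. Cells were plated at low density (1000–1500/well, varied by donor) and triggered with anti-IgE for 30 min at 37 °C.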

[3] = low cell density CHMC, tryptase, 3 pt
[4] = low cell density CHMC, tryptase, 3 pt, read-out: LD Tryptase, CHMC, IgE, 3 pt
[5] = low cell density CHMC, tryptase, 8 pt, read-out: LD Tryptase, CHMC, IgE, 8 pt
[6] = Homo sapiens, Mast cell, low cell density CHMC, tryptase release, 3 pt
[7] = Homo sapiens, Mast cell, low cell density CHMC, tryptase release, 3 pt, read-out: LD Tryptase, CHMC, IgE, 3 pt
[8] = Homo sapiens, Mast cell, low cell density CHMC, tryptase, 3 pt
[9] = Homo sapiens, Mast cell, low cell density CHMC, tryptase, 3 pt, read-out: LD Tryptase, CHMC, IgE, 3 pt
[10] = Homo sapiens, Mast cell, low cell density CHMC, tryptase release, 8 pt, read-out: LD Tryptase, CHMC, IgE, 8 pt
[11] = low cell density CHMC, tryptase release, 3 point
[12] = low cell density CHMC, tryptase release, 3 point, read-out: LD Tryptase, CHMC, IgE, 3 pt
[13] = low cell density CHMC, tryptase release, 8 point, read-out: LD Tryptase, CHMC, IgE, 8 pt
[14] = Homo sapiens, Mast cell, low cell density, 3 pt
[15] = Homo sapiens, Mast cell, low cell density, 3 pt, read-out: LD Tryptase, CHMC, IgE, 3 pt
[16] = Homo sapiens, Mast cell, low cell density, 8 pt, read-out: LD Tryptase, CHMC, IgE, 8 pt
[17] = low cell density, 3 pt, read-out: LD Tryptase, CHMC, IgE, 3 pt
[18] = low cell density, 8 pt, read-out: LD Tryptase, CHMC, IgE, 8 pt
[19] = Homo sapiens, Mast cell, low cell density CHMC, tryptase, 8 pt, read-out: LD Tryptase, CHMC, IgE, 8 pt

IC50 [1, 3]: > 10 µM
IC50 [2, 4]: < 10 µM
IC50 [2, 5]: < 10 µM
Compound: CNC(=O)CNC(=O)c1ccc(Nc2ncc(F)c(N(C)c3ccc(Cl)c(Cl)c3)n2)cc1 [Compound 1301, N4-(3,4-Dichlorophenyl)-5-fluoro-N4-methyl-N2-[4-[N-(N-methylamino)carbonylmethylene]aminocarbonylphenyl]-2,4-pyrimidinediamine]

IC50 [1, 8]: > 10 µM
IC50 [2, 9]: < 10 µM
Compound: CC(=O)N(C)c1ccc(Nc2ncc(F)c(NC3CCCC3)n2)cc1 [Compound 1172, N2-[4-(N-Acetyl-N-methylamino)phenyl]-N4-cyclopentyl-5-fluoro-2,4-pyrimidinediamine]

IC50 [1, 14]: > 10 µM
IC50 [2, 15]: < 10 µM
IC50 [2, 16]: < 10 µM
Compound: CNC(=O)c1cc(Nc2nc(Nc3cc(C)cc(C)c3)ncc2F)ccc1Cl [Compound 476, N4-[4-Chloro-3-(N-methylamino)carbonylphenyl]-N2-(3,5-dimethylphenyl)-5-fluoro-2,4-pyrimidinediamine]

IC50 [1, 14]: < 10 µM
IC50 [2, 15]: < 10 µM
Compound: CNC(=O)c1cc(Nc2ncc(F)c(Nc3ccc(OC)c(Cl)c3)n2)ccc1Cl [Compound 451, N4-(3-Chloro-4-methoxyphenyl)-N2-[4-chloro-3-(N-methylamino)carbonylphenyl]-5-fluoro-2,4-pyrimidinediamine]

IC50 [1, 8]: > 10 µM
IC50 [2, 9]: < 10 µM
Compound: COc1ccc(N(C)c2nc(Nc3ccc4cc[nH]c4c3)ncc2F)cc1OC [Compound 436, N4-(3,4-Dimethoxyphenyl)-5-fluoro-N2-(indol-6-yl)-N4-methyl-2,4-pyrimidinediamine]

IC50 [1, 11]: > 10 µM
IC50 [2, 12]: < 10 µM
IC50 [2, 13]: < 10 µM
Compound: COC(=O)Cn1ccc2cc(Nc3ncc(F)c(Nc4ccc5c(c4)OCCO5)n3)ccc21 [Compound 647, N4-(3,4-Ethylenedioxyphenyl)-5-fluoro-N2-[1-(methoxycarbonylmethylene)indol-5-yl]-2,4-pyrimidinediamine]

IC50 [1, 8]: > 10 µM
IC50 [2, 9]: < 10 µM
IC50 [2, 19]: < 10 µM
Compound: COC(=O)CCNC(=O)c1ccc(Nc2ncc(F)c(N(C)c3ccc(Cl)c(Cl)c3)n2)cc1 [Compound 1306]

IC50 [1, 8]: > 10 µM
IC50 [2, 9]: < 10 µM
IC50 [2, 19]: < 10 µM
Compound: CCOC(=O)N1CCN(c2ccc(Nc3ncc(F)c(N(C)C4CCC4)n3)cc2)CC1 [Compound 1148, N4-Cyclobutyl-N2-[4-(4-ethoxycarbonylpiperazino)phenyl]-5-fluoro-N4-methyl-2,4-pyrimidinediamine]

IC50 [1, 6]: > 10 µM
IC50 [2, 7]: > 10 µM
Compound: CN1C(=O)COc2ccc(Nc3nc(Nc4ccc(-c5ncco5)cc4)ncc3F)cc21 [Compound 245]

IC50 [1, 14]: > 10 µM
IC50 [2, 15]: < 10 µM
IC50 [2, 16]: < 10 µM
Compound: CNC(=O)c1cc(Nc2ncc(F)c(Nc3ccc4c(c3)NC(=O)C(C)(C)O4)n2)ccc1Cl [Compound 455]

IC50 ([1]; low cell density, 3 pt): > 10 µM
IC50 [2, 17]: < 10 µM
IC50 [2, 18]: < 10 µM
Compound: COc1ccc(Nc2ncc(F)c(Nc3ccc(OCCO)nc3)n2)cc1Cl [Compound 505, N2-(3-Chloro-4-methoxyphenyl)-5-fluoro-N4-[2-(2-hydroxyethyleneoxy)pyrid-5-yl]-2,4-pyrimidinediamine]

IC50 [1, 8]: > 10 µM
IC50 [2, 9]: < 10 µM
IC50 [2, 19]: < 10 µM
Compound: CN1CCN(c2cccc(Nc3ncc(F)c(N(C)C4CCC4)n3)c2)CC1 [Compound 1151, N4-Cyclobutyl-5-fluoro-N4-methyl-N2-[3-(4-methylpiperazino)phenyl]-2,4-pyrimidinediamine]

IC50 [1, 6]: > 10 µM
IC50 [2, 7]: < 10 µM
IC50 [2, 10]: < 10 µM
Compound: Cc1nc2ccc(Nc3ncc(F)c(Nc4ccc5c(c4)NC(=O)[C@H](C)O5)n3)cc2[nH]1 [Compound 811, (S)-5-Fluoro-N2-(2-methyl-3H-benzimidazol-5-yl)-N4-(2-methyl-3-oxo-2H,4H-benz[1,4]oxazin-6-yl)-2,4-pyrimidinediamine]

IC50 [1, 8]: > 10 µM
IC50 [2, 9]: < 10 µM
Compound: COc1ccc(Nc2nc(Nc3ccc(-c4ncco4)cc3)ncc2F)cc1OC [Compound 424]

Further lines, the molecule ahead of its results:

Compound: CN1CCOc2cc(Nc3nc(Nc4cccc(-c5cnco5)c4)ncc3F)ccc21 [Compound 237]
IC50 [1, 6]: > 10 µM
IC50 [2, 7]: < 10 µM

Compound: CC(C)(C)OC(=O)N1CC(Nc2nc(Nc3ccc(N4CCOCC4)cc3)ncc2F)C1 [Compound 1118, N4-(1-tert-Butoxycarbonylazetidin-3-yl)-5-fluoro-N2-(4-morpholinophenyl)-2,4-pyrimidinediamine]
IC50 [1, 8]: < 10 µM
IC50 [2, 9]: < 10 µM

Compound: C[C@@H]1Oc2ccc(Nc3nc(Nc4ccc5[nH]c(C(F)(F)F)nc5c4)ncc3F)cc2NC1=O [Compound 803, (S)-5-Fluoro-N4-(2-methyl-3-oxo-2H,4H-benz[1,4]oxazin-6-yl)-N2-(2-trifluoromethyl-1H-benzimidazol-5-yl)-2,4-pyrimidinediamine]
IC50 [1, 6]: > 10 µM
IC50 [2, 7]: < 10 µM
IC50 [2, 10]: < 10 µM

Compound: O=C1Nc2ccc(Nc3nc(Nc4cccc(-c5ncco5)c4)ncc3F)cc2OC1CCO (centres unmarked) [Compound 248]
IC50 [1, 6]: > 10 µM
IC50 [2, 7]: < 10 µM
IC50 [2, 10]: < 10 µM

Compound: O=C1COc2ccc(Nc3nc(Nc4cccc(-c5cnco5)c4)ncc3F)cc2N1 [Compound 246]
IC50 [1, 6]: > 10 µM
IC50 [2, 7]: < 10 µM
IC50 [2, 10]: < 10 µM

Compound: COC(=O)Cn1ccc2ccc(Nc3ncc(F)c(Nc4ccc5c(c4)NC(=O)C(C)(C)O5)n3)cc21 [Compound 639, N4-(2,2-Dimethyl-3-oxo-4H-benz[1,4]oxazin-6-yl)-5-fluoro-N2-[1-(methoxycarbonylmethylene)indol-6-yl]-2,4-pyrimidinediamine]
IC50 [1, 11]: > 10 µM
IC50 [2, 12]: < 10 µM
IC50 [2, 13]: < 10 µM

Compound: COCCn1ncc2cc(Nc3ncc(F)c(Nc4ccc(Cl)c(Cl)c4)n3)ccc21 [Compound 771, N4-(3,4-Dichlorophenyl)-5-fluoro-N2-[1-(2-methoxyethyl)indazol-5-yl]-2,4-pyrimidinediamine]
IC50 [1, 6]: > 10 µM
IC50 [2, 7]: < 10 µM
IC50 [2, 10]: < 10 µM

Compound: CNC(=O)c1ccc(Nc2ncc(F)c(Nc3ccc4c(n3)NC(=O)C(C)(C)O4)n2)cc1Cl [Compound 1054, N2-[3-Chloro-4-(N-methylamino)carbonylphenyl]-N4-(2,2-dimethyl-3-oxo-4H-5-pyrid[1,4]oxazin-6-yl)-5-fluoro-2,4-pyrimidinediamine]
IC50 ([1]; low cell density CHMC, tryptase readout, 3 pt): > 10 µM
IC50 ([2]; low cell density CHMC, tryptase readout, 3 pt, read-out: LD Tryptase, CHMC, IgE, 3 pt): < 10 µM
IC50 ([2]; low cell density CHMC, tryptase readout, 8 pt, read-out: LD Tryptase, CHMC, IgE, 8 pt): < 10 µM

Compound: COc1ccc(N(C)c2nc(Cl)ncc2F)cn1 [Compound 657]
IC50 ([1]; Homo sapiens, Mast cell, low cell density CHMC, tryptase release, 3 point): > 10 µM
IC50 ([2]; Homo sapiens, Mast cell, low cell density CHMC, tryptase release, 3 point, read-out: LD Tryptase, CHMC, IgE, 3 pt): > 10 µM

Compound: Fc1cnc(Nc2cccc(-c3ncco3)c2)nc1Nc1ccc2c(n1)NCCO2 [Compound 1143, N4-(3,4-Dihydro-2H,4H-5-pyrid[1,4]oxazin-6-yl)-5-fluoro-N2-[3-(oxazol-2-yl)phenyl]-2,4-pyrimidinediamine]
IC50 [1, 3]: > 10 µM
IC50 [2, 4]: < 10 µM
IC50 [2, 5]: < 10 µM

Compound: Fc1cnc(Nc2cccc(-c3ncon3)c2)nc1Nc1ccc2c(c1)OCCO2 [Compound 512]
IC50 [1, 14]: > 10 µM
IC50 [2, 15]: < 10 µM

Compound: CN(c1ccc2c(c1)OC(F)(F)C(F)(F)O2)c1nc(Nc2cccc(-c3ncco3)c2)ncc1F [Compound 634]
IC50 [1, 11]: > 10 µM
IC50 [2, 12]: > 10 µM
IC50 [2, 13]: < 10 µM

Compound: Cc1cc(Nc2ncc(F)c(Nc3ccc4c(n3)NC(=O)C(C)(C)O4)n2)cc(Cl)c1O [Compound 996, N2-(3-Chloro-4-hydroxy-5-methylphenyl)-N4-(2,2-dimethyl-3-oxo-4H-5-pyrid[1,4]oxazin-6-yl)-5-fluoro-2,4-pyrimidinediamine]
IC50 ([1]; low cell density, 3 pt): > 10 µM
IC50 [2, 17]: < 10 µM
IC50 [2, 18]: < 10 µM

Compound: CNC(=O)CNC(=O)c1ccc(Nc2ncc(F)c(Nc3ccc4c(c3)C(NC(=O)OC(C)(C)C)CCO4)n2)cc1 (racemic) [Compound 1298, (R,S)-N4-[4-(N-tert-Butoxycarbonyl)amino-3,4-dihydro-2H-1-benzopyran-6-yl]-5-fluoro-N2-[4-[N-(N-methylamino)carbonylmethylene]aminocarbonylphenyl]-2,4-pyrimidinediamine]
IC50 [1, 3]: > 10 µM
IC50 [2, 4]: < 10 µM

Compound: CNC(=O)COc1c(C)cc(Nc2ncc(F)c(N(C)c3ccc4c(c3)OCCO4)n2)cc1C [Compound 635, N2-[3,5-Dimethyl-4-(N-methylamino)carbonylmethyleneoxyphenyl]-N4-(3,4-ethylenedioxyphenyl)-5-fluoro-N4-methyl-2,4-pyrimidinediamine]
IC50 [1, 11]: < 10 µM
IC50 [2, 12]: < 10 µM
IC50 [2, 13]: < 10 µM
